Consider nine compounds from patent US12492188B2, “1H-benzo[D]imidazole derivatives as TLR9 inhibitors for the treatment of fibrosis” (BRISTOL-MYERS SQUIBB COMPANY, priority 2020, dated 2025).

Broadly, the IC50 is the midpoint of a concentration-inhibition curve.

What all share (assay type): cell-based
The target in one assay is T1, human TLR9 (Homo sapiens, UniProt Q9NR96).
T1 construct: host or cells: HEK-Blue cells (HEK293-derived reporter line)
T1 sequence (Q9NR96 26-1032): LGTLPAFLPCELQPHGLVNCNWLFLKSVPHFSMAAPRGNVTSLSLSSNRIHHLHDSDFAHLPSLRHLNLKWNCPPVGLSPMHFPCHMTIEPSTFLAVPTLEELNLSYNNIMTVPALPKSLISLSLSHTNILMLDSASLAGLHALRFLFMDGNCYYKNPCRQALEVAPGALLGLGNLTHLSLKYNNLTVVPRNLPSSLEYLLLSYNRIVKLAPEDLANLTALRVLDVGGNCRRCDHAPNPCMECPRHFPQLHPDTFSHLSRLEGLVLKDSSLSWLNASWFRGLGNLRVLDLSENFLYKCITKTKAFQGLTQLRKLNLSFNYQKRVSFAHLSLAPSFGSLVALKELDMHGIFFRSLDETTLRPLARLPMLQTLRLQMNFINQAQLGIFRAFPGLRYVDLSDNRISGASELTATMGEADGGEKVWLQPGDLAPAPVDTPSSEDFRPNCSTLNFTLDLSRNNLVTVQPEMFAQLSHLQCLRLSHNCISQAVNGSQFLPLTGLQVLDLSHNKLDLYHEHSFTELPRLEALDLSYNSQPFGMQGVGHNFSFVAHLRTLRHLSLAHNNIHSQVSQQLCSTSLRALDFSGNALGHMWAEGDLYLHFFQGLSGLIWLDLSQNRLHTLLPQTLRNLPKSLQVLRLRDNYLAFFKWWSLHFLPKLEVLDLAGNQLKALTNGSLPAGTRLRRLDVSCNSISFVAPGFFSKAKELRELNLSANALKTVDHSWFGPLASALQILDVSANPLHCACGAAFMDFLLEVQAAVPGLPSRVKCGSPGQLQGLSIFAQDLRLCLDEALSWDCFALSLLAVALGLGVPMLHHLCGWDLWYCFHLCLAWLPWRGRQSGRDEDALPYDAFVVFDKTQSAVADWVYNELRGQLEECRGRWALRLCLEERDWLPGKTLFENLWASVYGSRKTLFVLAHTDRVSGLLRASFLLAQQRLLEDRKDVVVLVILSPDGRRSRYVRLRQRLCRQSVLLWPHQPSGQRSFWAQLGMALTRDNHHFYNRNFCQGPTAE
As to the kind of experiment: TLR9 inhibition reporter assay (HEK-Blue cells, secreted embryonic alkaline phosphatase reporter). The method, boiled down:
(§1)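 HEK-Blue cells expressing human TLR7, TLR8 or TLR9 with an NF-κB/AP-1-driven SEAP reporter were pretreated with compound (0.05 nM–50 μM final) for 30 min at room temperature. Agonists were gardiquimod 7.5 μM for TLR7, R848 15.9 μM for TLR8 and ODN2006 5 nM for TLR9. SEAP was read after 22 h at 37 °C, and inhibition was calculated relative to agonist-plus-DMSO and known-inhibitor controls.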
(In general: A reporter such as luciferase makes a cellular process visible.)

A further assay has as its target T2, human TLR7 (Homo sapiens, UniProt Q9NYK1).
T2 construct: host or cells: HEK-Blue cells (HEK293-derived reporter line)
T2 sequence (Q9NYK1 27-1049): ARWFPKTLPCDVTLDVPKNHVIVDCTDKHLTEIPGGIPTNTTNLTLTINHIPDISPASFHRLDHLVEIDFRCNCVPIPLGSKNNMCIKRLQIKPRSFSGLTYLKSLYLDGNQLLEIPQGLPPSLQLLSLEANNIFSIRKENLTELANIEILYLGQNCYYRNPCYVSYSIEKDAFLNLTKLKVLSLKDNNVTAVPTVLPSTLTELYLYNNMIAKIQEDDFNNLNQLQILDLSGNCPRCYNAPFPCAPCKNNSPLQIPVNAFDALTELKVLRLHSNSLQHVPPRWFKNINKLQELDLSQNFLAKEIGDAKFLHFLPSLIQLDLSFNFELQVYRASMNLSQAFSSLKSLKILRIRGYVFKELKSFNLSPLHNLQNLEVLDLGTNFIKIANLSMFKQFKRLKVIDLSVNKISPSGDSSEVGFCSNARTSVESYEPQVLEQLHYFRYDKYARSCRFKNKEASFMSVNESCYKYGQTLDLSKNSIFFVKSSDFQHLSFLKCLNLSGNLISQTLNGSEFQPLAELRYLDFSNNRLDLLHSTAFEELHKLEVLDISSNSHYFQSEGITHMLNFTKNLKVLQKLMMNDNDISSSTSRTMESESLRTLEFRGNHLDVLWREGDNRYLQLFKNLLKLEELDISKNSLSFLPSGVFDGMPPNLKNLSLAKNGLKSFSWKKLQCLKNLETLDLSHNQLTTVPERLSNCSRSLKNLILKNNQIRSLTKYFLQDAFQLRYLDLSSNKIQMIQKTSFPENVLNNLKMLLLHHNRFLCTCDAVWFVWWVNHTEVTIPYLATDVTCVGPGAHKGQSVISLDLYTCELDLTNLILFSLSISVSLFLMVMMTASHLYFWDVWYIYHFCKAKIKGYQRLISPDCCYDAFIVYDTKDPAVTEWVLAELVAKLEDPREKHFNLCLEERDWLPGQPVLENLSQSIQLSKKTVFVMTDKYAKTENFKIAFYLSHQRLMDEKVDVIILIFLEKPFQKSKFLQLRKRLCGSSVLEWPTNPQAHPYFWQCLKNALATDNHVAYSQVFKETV
As to the kind of experiment: TLR7 inhibition reporter assay (HEK-Blue cells, secreted embryonic alkaline phosphatase reporter). As to conditions: HEK-Blue cells overexpressing human TLR7, stimulated with gardiquimod 7.5 μM; read-out: TLR 7 IC50. The method, boiled down: as §1

Another assay deals with T3, human TLR8 (Homo sapiens, UniProt Q9NR97).
T3 construct: host or cells: HEK-Blue cells (HEK293-derived reporter line)
T3 sequence (Q9NR97 27-1041): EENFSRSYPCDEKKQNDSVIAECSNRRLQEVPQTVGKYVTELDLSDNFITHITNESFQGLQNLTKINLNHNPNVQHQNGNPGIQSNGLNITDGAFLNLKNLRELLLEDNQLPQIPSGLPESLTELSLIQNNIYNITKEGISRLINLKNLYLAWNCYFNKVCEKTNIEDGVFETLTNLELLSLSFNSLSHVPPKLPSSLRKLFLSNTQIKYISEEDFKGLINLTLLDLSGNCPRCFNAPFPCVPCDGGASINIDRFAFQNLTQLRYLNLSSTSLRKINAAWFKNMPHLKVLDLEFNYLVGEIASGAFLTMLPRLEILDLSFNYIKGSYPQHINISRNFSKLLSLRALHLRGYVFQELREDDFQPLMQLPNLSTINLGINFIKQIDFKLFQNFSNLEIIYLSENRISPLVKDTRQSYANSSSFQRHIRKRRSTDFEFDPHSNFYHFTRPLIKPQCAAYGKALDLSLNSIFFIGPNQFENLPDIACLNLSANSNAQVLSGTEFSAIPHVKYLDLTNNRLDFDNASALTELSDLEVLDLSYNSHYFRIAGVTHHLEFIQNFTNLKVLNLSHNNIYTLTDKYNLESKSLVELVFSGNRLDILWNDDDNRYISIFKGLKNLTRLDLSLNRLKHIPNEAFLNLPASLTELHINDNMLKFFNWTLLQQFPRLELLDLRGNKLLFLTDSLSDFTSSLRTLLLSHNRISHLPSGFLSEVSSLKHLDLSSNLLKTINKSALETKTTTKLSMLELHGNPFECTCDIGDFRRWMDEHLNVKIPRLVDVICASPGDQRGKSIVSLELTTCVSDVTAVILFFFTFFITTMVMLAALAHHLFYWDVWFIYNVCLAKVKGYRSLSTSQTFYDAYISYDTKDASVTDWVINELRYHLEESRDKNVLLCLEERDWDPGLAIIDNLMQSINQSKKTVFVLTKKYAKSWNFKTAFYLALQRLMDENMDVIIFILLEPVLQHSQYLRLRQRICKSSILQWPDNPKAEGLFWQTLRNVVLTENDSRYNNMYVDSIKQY
As to the kind of experiment: TLR8 inhibition reporter assay (HEK-Blue cells, secreted embryonic alkaline phosphatase reporter). To be noted: HEK-Blue cells overexpressing human TLR8, stimulated with R848 15.9 μM; read-out: TLR 8 IC50. The gist of the method:
as §1

[1] abbreviates: HEK-Blue cells overexpressing human TLR9, stimulated with ODN2006 5 nM, read-out: TLR 9 IC50.
The mark [2] stands for this setting: HEK-Blue human TLR9 reporter cells.

Structures are written as SMILES. Where two headings read alike, the source gives them in different places.

As to `Cn1c(-c2ccc(S(C)(=O)=O)cc2)nc2ccc(C3CCN(C4CC5CCC(C4)N5C4CCC4)CC3)c(F)c21` (single isomer, unassigned) [Example 270, 6-(1-(8-cyclobutyl-8-azabicyclo[3.2.1]octan-3-yl)piperidin-4-yl)-7-fluoro-1-methyl-2-(4-(methylsulfonyl)phenyl)-1H-benzo[d]imidazole], the IC50 against human TLR9 is 65 nM; on human TLR9 (setting [1]) it was 65 nM; at human TLR7 it was 17700 nM; at human TLR8, over 50000 nM.
As to `Cn1c(-c2ccc(S(C)(=O)=O)cc2)nc2ccc(C3CCN(C4CC5CCC(C4)N5C4CCC4)CC3)c(F)c21` (single isomer, unassigned) [Example 271, 6-(1-(8-cyclobutyl-8-azabicyclo[3.2.1]octan-3-yl)piperidin-4-yl)-7-fluoro-1-methyl-2-(4-(methylsulfonyl)phenyl)-1H-benzo[d]imidazole], the IC50 at human TLR9 was 410 nM; at human TLR9 (setting [1]), 407 nM; on human TLR7, 31600 nM; at human TLR8 it was over 50000 nM.
As for `COCCN1C2CCC1CC(N1CCC(c3ccc4nc(-c5ccc(S(C)(=O)=O)cc5)n(C)c4c3F)CC1)C2` (single isomer, unassigned) [Example 276, 7-fluoro-6-(1-(8-(2-methoxyethyl)-8-azabicyclo[3.2.1]octan-3-yl)piperidin-4-yl)-1-methyl-2-(4-(methylsulfonyl)phenyl)-1H-benzo[d]imidazole], the half-maximal inhibitory concentration (IC50) against human TLR9 is 170 nM; at human TLR9 (setting [1]), 167 nM; on human TLR7 it was 1500 nM; at human TLR8 it was over 50000 nM.
In the same order, the values of `COCCN1C2CCC1CC(N1CCC(c3ccc4nc(-c5ccc(S(C)(=O)=O)cc5)n(C)c4c3F)CC1)C2` (single isomer, unassigned) [Example 277, 7-fluoro-6-(1-(8-(2-methoxyethyl)-8-azabicyclo[3.2.1]octan-3-yl)piperidin-4-yl)-1-methyl-2-(4-(methylsulfonyl)phenyl)-1H-benzo[d]imidazole] are 270 nM, 269 nM, 1000 nM and 16300 nM.
Turning to `Cn1c(-c2ccc(S(C)(=O)=O)cc2)nc2c(F)cc(C3CCN(C4CC5CCC(C4)N5CC4CC4)CC3)cc21` (single isomer, unassigned) [Example 282, 6-(1-(8-(cyclopropylmethyl)-8-azabicyclo[3.2.1]octan-3-yl)piperidin-4-yl)-4-fluoro-1-methyl-2-(4-(methylsulfonyl)phenyl)-1H-benzo[d]imidazole], the IC50 on human TLR9 (setting [1]) was 108 nM; against human TLR9 (setting [2]), 110 nM; at human TLR7 it was 7100 nM; at human TLR8, over 50000 nM.
On to `Cn1c(-c2ccc(S(C)(=O)=O)cc2)nc2c(F)cc(C3CCN(C4CC5CCC(C4)N5CC4CC4)CC3)cc21` (single isomer, unassigned) [Example 283, 6-(1-(8-(cyclopropylmethyl)-8-azabicyclo[3.2.1]octan-3-yl)piperidin-4-yl)-4-fluoro-1-methyl-2-(4-(methylsulfonyl)phenyl)-1H-benzo[d]imidazole], for which the IC50 on human TLR9 (setting [1]) was 16 nM; against human TLR9 (setting [2]), 16 nM; on human TLR7, 4700 nM; at human TLR8, over 50000 nM.
`Cn1c(-c2ccc(S(C)(=O)=O)cc2)nc2c(F)cc(C3CCN(C4CC5CCC(C4)N5C4CCOCC4)CC3)cc21` (single isomer, unassigned) [Example 288, 4-fluoro-1-methyl-2-(4-(methylsulfonyl)phenyl)-6-(1-(8-(tetrahydro-2H-pyran-4-yl)-8-azabicyclo[3.2.1]octan-3-yl)piperidin-4-yl)-1H-benzo[d]imidazole]: the IC50 is 105 nM on human TLR9 (setting [1]), 110 nM on human TLR9 (setting [2]), 31700 nM on human TLR7 and over 50000 nM at human TLR8.
Turning to `Cn1c(-c2ccc(S(C)(=O)=O)cc2)nc2c(F)cc(C3CCN(C4CC5CCC(C4)N5C4CCOCC4)CC3)cc21` (single isomer, unassigned) [Example 289, 4-fluoro-1-methyl-2-(4-(methylsulfonyl)phenyl)-6-(1-(8-(tetrahydro-2H-pyran-4-yl)-8-azabicyclo[3.2.1]octan-3-yl)piperidin-4-yl)-1H-benzo[d]imidazole], the IC50 on human TLR9 (setting [1]) is 29 nM; against human TLR9 (setting [2]), 29 nM; at human TLR7 it was 3200 nM; at human TLR8 it was over 50000 nM.
In the case of `COCCN1C2CCC1CC(N1CCC(c3cc(F)c4nc(-c5ccc(S(C)(=O)=O)cc5)n(C)c4c3)CC1)C2` (single isomer, unassigned) [Example 290, 4-fluoro-6-(1-(8-(2-methoxyethyl)-8-azabicyclo[3.2.1]octan-3-yl)piperidin-4-yl)-1-methyl-2-(4-(methylsulfonyl)phenyl)-1H-benzo[d]imidazole], the IC50 is 144 nM at human TLR9 (setting [1]), 150 nM against human TLR9 (setting [2]), 22200 nM on human TLR7 and over 50000 nM at human TLR8.
